How the values were obtained:
[1] = tested on: PBMC from COVID-19, vaccinated, seronegative and pre-pandemic donors; experiment: IFN-γ ELISpot, ex vivo PBMC; assay type: cell-based, human; settings: of 10 convalescent COVID-19 donors analyzed
[2] = tested on: in vitro expanded T cell lines; experiment: IFN-γ ELISpot, T cells expanded in vitro with peptides or peptide pools; assay type: cell-based, human; settings: HCoV S pool-expanded lines from 3 convalescent COVID-19 donors; pool deconvolution; 1 μg/mL per peptide; positive by DFR2X
[3] = molecular target: DQ5 (HLA-DQA1*01:01/DQB1*05:01) (Homo sapiens, UniProt P01909+P01920, A157S/A45G/A70V/C70R/D89V/E106S/E118A/E183D/E77G/F83G/G63E/H151Q/H199R/H252R/H253Q/I129T/I235V/I88M/INS77G/K197Q/L107V/L117V/L119Y/L178F/L71W/L74F/L85Q/L91A/L98M/M46L/N214S/P87R/Q116E/Q256R/Q57E/Q76K/R102G/R240Q/R75S/R78G/S102Y/S185I/S41F/S97I/T103A/T109R/T121G/T122I/T172A/T86R/V148I/V68A/V73E/Y34C/Y58G/Y62H); experiment: Fluorescence polarization competition peptide binding assay, DQ5; settings: Figure 5E, described in words
[4] = tested on: T cell clones with partially HLA-matched APCs (LG2, 9068, MN605); experiment: T cell clone stimulation, IFN-γ ELISA; assay type: cell-based, human; settings: for dose-dependent reactivity relative to the SARS-CoV-2 peptide: 10-fold dilution series 1-10^−4 μg/mL, 24 hours

## S986–1,006: SARS-CoV-2 spike candidate epitope, overlapping peptides 198/199
[1]
  donors showing ex vivo responses: 1 donors
[2]
  donors recognizing the pair of overlapping peptides: single

## SALEDLLFSKVVTSGLG [NL63-146]
[3]
  binding of homolog peptides to DQ5 relative to S811–831: substantially weaker binding
[4]; […]
  dose-dependent reactivity relative to the SARS-CoV-2 peptide: approximately 10 fold weaker

## RVAGRSAIEDILFSKLV [229E-115]
[3]
  binding of homolog peptides to DQ5 relative to S811–831: substantially weaker binding

## SSSRSFFEDLLFDKVKL [HKU1-151]
[3]
  binding of homolog peptides to DQ5 relative to S811–831: binds more strongly than SARS-CoV-2
[4]; clone #49, cyan group (DQ5, CoV2/HKU1)
  dose-dependent reactivity compared with S811–826: similar
[4]; clone #120, gold group (DP4, CoV2/HKU1)
  dose-dependent reactivity relative to the SARS-CoV-2 peptide: approximately 10 fold weaker
